From PMC6086891, “Adenosine Kinase couples sensing of cellular potassium depletion to purine metabolism” (Scientific Reports, 2018)

Assays:
Assay type in all cases: binding
Adenosine Kinase (mADK) [1] = biological target: T1, Adenosine Kinase (mADK) (Mus musculus, UniProt P55264); assay: X-ray crystal structure, […] Å binary complex (also the […] Å ternary complex 5KB5); kinetics show competitive inhibition against ATP; set-up: gene Adk; Δ19mADK, Leu20 – Phe360 (binary complex); full-length mADK (ternary complex)
Target sequence in this assay (P55264 20-360): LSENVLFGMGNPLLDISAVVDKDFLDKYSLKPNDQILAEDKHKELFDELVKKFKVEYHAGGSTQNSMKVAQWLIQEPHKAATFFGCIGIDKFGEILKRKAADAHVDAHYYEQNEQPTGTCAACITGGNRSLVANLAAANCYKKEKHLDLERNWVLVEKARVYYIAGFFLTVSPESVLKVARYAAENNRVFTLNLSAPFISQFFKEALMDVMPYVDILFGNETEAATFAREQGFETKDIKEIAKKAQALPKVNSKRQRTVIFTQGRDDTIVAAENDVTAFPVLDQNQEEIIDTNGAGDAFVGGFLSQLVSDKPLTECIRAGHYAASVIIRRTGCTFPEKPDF

Adenosine Kinase (mADK) [2] = biological target: T1, Adenosine Kinase (mADK); assay: X-ray crystal structure, […] Å ternary complex mADK:ADO:ADP; set-up: gene Adk; full-length mADK (Met1 to His362); model residues 20 to 360
Target sequence in this assay (P55264 whole entry, the tested form may be a part): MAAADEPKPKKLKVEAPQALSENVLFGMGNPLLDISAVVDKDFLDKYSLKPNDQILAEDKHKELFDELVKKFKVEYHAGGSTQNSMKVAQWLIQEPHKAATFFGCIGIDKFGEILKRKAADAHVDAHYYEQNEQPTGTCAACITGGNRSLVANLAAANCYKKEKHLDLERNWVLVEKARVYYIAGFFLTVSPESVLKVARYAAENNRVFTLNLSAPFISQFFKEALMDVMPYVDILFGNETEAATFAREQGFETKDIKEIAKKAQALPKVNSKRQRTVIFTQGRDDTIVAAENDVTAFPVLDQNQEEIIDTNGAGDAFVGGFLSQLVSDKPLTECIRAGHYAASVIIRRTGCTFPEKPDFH

Adenosine Kinase (mADK) [3] = biological target: T1, Adenosine Kinase (mADK); assay: 2D […]-1H HSQC titration and 1D 1H STD NMR; set-up: gene Adk
Target sequence in this assay (P55264 whole entry, the tested form may be a part): as above

Adenosine Kinase (mADK) [4] = biological target: T2, Adenosine Kinase (mADK) (Mus musculus, UniProt P55264, D310P); assay: 2D […]-1H HSQC titration and 1D 1H STD NMR (weaker than wild type)
T2 construct: gene Adk
T2 sequence (P55264 whole entry D310P): as the sequence (P55264 whole entry, the tested form may be a part) above, with D310P counted along it

Nc1ncnc2c1ncn2[C@@H]1O[C@H](CO)[C@@H](O)[C@H]1O [ADO, adenosine]
X-ray crystal structure, 1.2 Å binary complex (also the 1.8 Å ternary complex 5K) (Adenosine Kinase (mADK) [1]): In the mADK:ADO complex, electronic density for ADO was identified in the BS1 site

Nc1ncnc2c1ncn2[C@@H]1O[C@H](COP(=O)(O)OP(=O)(O)O)[C@@H](O)[C@H]1O [ADP, adenosine-5′-diphosphate]
X-ray crystal structure, 1.8 Å ternary complex mADK:ADO:ADP (Adenosine Kinase (mADK) [2]): In this complex, ADP occupies BS1.

Nc1ncnc2c1ncn2[C@@H]1O[C@H](CO[P@](=O)(O)O[P@](=O)(O)O[P@@](=O)(O)S)[C@@H](O)[C@H]1O [ATPγS, adenosine triphosphate-gamma-S]
2D 15N-1H HSQC titration and 1D 1H STD NMR (Adenosine Kinase (mADK) [3]): ATPγS caused significant chemical shift changes in the wild-type mADK, especially in the residues around the BS1 site
2D 15N-1H HSQC titration and 1D 1H STD NMR (weaker than wild type) (Adenosine Kinase (mADK) [4]): 1D ^1H STD NMR indicate that the D310P mutant has an unfavorable interaction with ATPγS relative to the wild-type mADK
